{
  "source": "patent US10085449B2",
  "about": "“N-[1-((6-chloropyridin-3-yl)methyl)pyridin-2(1H)-ylidene]-2,2,2- trifluoroacetamide for control of agricultural/horticultural pests” (priority 2010, dated 2018)",
  "key": {"[1]": {"system": "Haemaphysalis longicornis", "type": "in vivo", "details": "10 ppm acetone solution (30 μL) dry film, larval ticks, 1 day after release", "experimental": "Glass vials having a capacity of 4 mL were each filled with 30 μL of an acetone solution containing 200 ppm or 10 ppm of the respective compounds. These filled vials were placed on a shaker and air-dried while being spun, thereby forming dry films of the compounds on the inner walls of the vials. After the vials had been dried for at least 24 hours, ten larval ticks (Haemaphysalis longicornis) were released into each vial, following which the vials were capped. The vials were then left at rest in an incubation chamber at 25° C., 85% humidity and complete darkness. One day after released, the numbers of live and dead ticks were counted, and the mortality was calculated from the following formula.\nThis test was carried out as two replications. Mortality (%)=[number of dead ticks/(number of live ticks+number of dead ticks)]×100"}, "[2]": {"system": "house fly crude enzyme extract", "assay": "In vitro metabolic test using house fly crude enzyme extract", "type": "in vitro ADME", "details": "house fly crude enzyme extract with NADP+ regenerating system, 25° C., 40 hours, LC/MS", "experimental": "As mentioned in Pest Management Science, 59(3), 347-352 (2003) and the Journal of Pesticide Science, 29(2), 110-116 (2004), imidacloprid is known to be inactivated by incurring oxidative metabolism, which is thought to be one mechanism of acquiring resistance to this agent. The following experiment was carried out to confirm the effects in pests which have acquired such resistance.\nAn amount of 10 mL of a potassium phosphate buffer solution (pH 7.4, containing 1 mM EDTA) was added to adult house flies (0.645 g), and the flies were thoroughly homogenized in a Physcotron (Niti-On Medical and Physical Instruments Manufacturing Co.). The homogenate was then centrifuged at 10,000 g for 15 minutes. The resulting supernatant was additionally centrifuged at 100,000 g for 60 minutes, giving a precipitate. The precipitate was dissolved in 1 mL of a potassium phosphate buffer, and the resulting solution was used as the crude enzyme extract. The enzyme extraction operations were all carried out on ice or at 4° C.\nThe reagents were mixed in the following proportions within a 1.5 mL tube, and the reaction was effected at 25° C. for 40 hours. Following the reaction, 1 mL of acetone was added and the mixture was stirred, following which the precipitate that formed was centrifuged at 12,000 rpm for 5 minutes. […]"}, "[3]": {"system": "brown rice planthopper having a low susceptibility to insecticides", "type": "in vivo", "details": "0.05 mg/seedling soil drenching", "experimental": "(§1) Rice seedlings grown in pots were subjected to soil drenching treatment with solutions of the inventive compounds at a predetermined concentration prepared to 10% acetone/water. Three days after treatment, ten second-instar brown rice planthopper larvae having a low susceptibility to insecticides were released onto each seedling. The seedlings and insects were then held in an incubation chamber at 25° C. (16-hour period of light, 8-hour dark period). Three days after released, the numbers of live and dead insects were counted, and the mortality was calculated from the following formula. The test was carried out as two replications. Mortality (%)=[number of dead insects/(number of live insects+number of dead insects)]×100\nThe pests used in this test were insects that had been raised indoors for successive generations over a long period of time (susceptible line), and insects that had been raised indoors for successive generations after being collected (I) in 2007 within Kumamoto Prefecture and (II) in 2005 within Fukuoka Prefecture (field-collected lines)."}, "[4]": {"system": "small brown planthopper having a low susceptibility to insecticides", "assay": "Small brown planthopper control test, pests having a low susceptibility to insecticides (soil drenching)", "type": "in vivo", "details": "0.01 mg/seedling soil drenching", "experimental": "as §1, with “second-instar small” for “second-instar”, “brown” for “brown rice”\nThe pests used in this test were insects that had been raised indoors for successive generations over a long period of time (susceptible line), and insects that had been raised indoors for successive generations after being collected in 2006 within Kumamoto Prefecture (field-collected line)."}},
  "note": "Read-outs that look alike come from different tables or passages of the source.",
  "data": [
    {"smiles": "O=[N+]([O-])NC1=NCCN1Cc1ccc(Cl)nc1", "note": "[imidacloprid]", "values": [
      {"measurement": "Mortality", "setting": "[1]", "result": 4, "unit": "%"},
      {"measurement": "Sum of the surface area percentages for the metabolites", "setting": "[2]", "result": 2.55, "unit": "%"},
      {"measurement": "Mortality", "setting": "[3]; field-collected line (I) 2007 Kumamoto Prefecture", "result": 40, "unit": "%"},
      {"measurement": "Mortality", "setting": "[3]; field-collected line (II) 2005 Fukuoka Prefecture", "result": 60, "unit": "%"},
      {"measurement": "Mortality", "setting": "[3]; susceptible line", "result": 100, "unit": "%"},
      {"measurement": "Mortality", "setting": "[4]; field-collected line (2006 Kumamoto Prefecture)", "result": 50, "unit": "%"},
      {"measurement": "Mortality", "setting": "[4]; susceptible line", "result": 100, "unit": "%"}
    ]}
  ]
}
